Reference: US20260347373A1, “HETEROCYCLIC COMPOUNDS, COMPOSITIONS THEREOF, AND METHODS OF TREATMENT THEREWITH” (BeOne Medicines I GmbH, priority 2023, published 2026)
Where two headings read alike, the source gives them in different places.

Tests used:
WT KRAS = WT KRAS (Homo sapiens, UniProt P01116); assay: KRAS WT Probe Displacement Assay (TR-FRET, GDP-loaded); type: binding
Text: (§1) The synthetic routes of probe 1 and 2, which have been disclosed in PCT/CN2022/070676, are hereby incorporated herein.

KRAS G12D = KRAS G12D (Homo sapiens, UniProt P01116, G12D); assay: KRAS G12D Probe Displacement Assay (TR-FRET, GDP-loaded); type: binding
Text: as §1

[1] = KRAS WT, read-out: KRAS^WT Probe Displacement Assay IC50
[2] = KRAS G12D, read-out: KRAS^G12D Probe Displacement Assay IC50

KRAS G12D, sequence (P01116 1-188 isoform P01116-2 G12D): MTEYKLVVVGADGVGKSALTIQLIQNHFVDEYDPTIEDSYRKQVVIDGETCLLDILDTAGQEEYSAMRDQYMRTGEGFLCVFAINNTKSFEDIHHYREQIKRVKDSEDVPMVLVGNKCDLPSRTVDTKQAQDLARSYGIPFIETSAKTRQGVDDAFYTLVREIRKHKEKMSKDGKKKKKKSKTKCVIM
WT KRAS, sequence (P01116 1-188 isoform P01116-2): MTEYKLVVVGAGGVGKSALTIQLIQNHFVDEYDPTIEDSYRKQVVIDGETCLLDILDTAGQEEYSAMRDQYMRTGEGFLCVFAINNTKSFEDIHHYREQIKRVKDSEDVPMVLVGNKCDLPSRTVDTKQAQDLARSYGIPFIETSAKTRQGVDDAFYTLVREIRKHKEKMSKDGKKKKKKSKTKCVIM

Row | Compound | IC50 (WT KRAS; [1]) | IC50 (KRAS G12D; [2]) | IC50 (WT KRAS; KRAS^WT Probe Displacement Assay IC50, KRAS WT) | IC50 (KRAS G12D; KRAS^G12D Probe Displacement Assay IC50, KRAS G12D)
1 | Cc1nc(N)cc(-c2nc3c4c(nc(OC[C@]5(CN(C)C)CC5(F)F)nc4c2F)N2C[C@H]4CC[C@H](N4)[C@H]2CCO3)c1C(F)(F)F [Example 48, 4-((6aR,7S,10R)-13-(((R)-1-((dimethylamino)methyl)-2,2-difluorocyclopropyl)methoxy)-1-fluoro-5,6,6a,7,8,9,10,11-octahydro-4-oxa-3,11a,12,14,15-pentaaza-7,10-methanocyclohepta[4,5]cycloocta [1,2,3-de]naphthalen-2-yl)-6-methyl-5-(trifluoromethyl)pyridin-2-amine] | 3 to 1000 nM | < 0.3 nM | – | –
2 | C[C@]1(COc2nc3c4c(nc(-c5cc(N)cc(Cl)c5C(F)(F)F)c(F)c4n2)OCC[C@@H]2[C@@H]4CC[C@H](CN32)N4)CCCN(C2CCOCC2)C1 [Example 196, 3-chloro-5-((6aR,7S,10R)-1-fluoro-13-(((S)-3-methyl-1-(tetrahydro-2H-pyran-4-yl)piperidin-3-yl)methoxy)-5,6,6a,7,8,9,10,11-octahydro-4-oxa-3,11a,12,14,15-pentaaza-7,10-methanocyclopenta[4,5]cycloocta[1,2,3-de]naphthalen-2-yl)-4-(trifluoromethyl)aniline] | 0.3 to 3 nM | < 0.3 nM | – | –
3 | Cc1cc(N)cc(-c2nc3c4c(nc(O[C@@H](C)[C@@H]5CCCN5CC5CC5)nc4c2F)N2C[C@H]4CC[C@H](N4)[C@H]2CCO3)c1C(F)(F)F [Example 230, 3-((6aR,7S,10R)-13-((S)-1-((S)-1-(cyclopropylmethyl)pyrrolidin-2-yl)ethoxy)-1-fluoro-5,6,6a,7,8,9,10,11-octahydro-4-oxa-3,11a,12,14,15-pentaaza-7,10-methanocyclohepta[4,5]cycloocta[1,2,3-de]naphthalen-2-yl)-5-methyl-4-(trifluoromethyl)aniline] | 3 to 1000 nM | < 0.3 nM | – | –
4 | CO[C@@H]1CN2C[C@H](F)C[C@]2(COc2nc3c4c(nc(-c5cc(N)cc(C)c5C(F)(F)F)c(F)c4n2)OCC[C@@H]2[C@@H]4CC[C@H](CN32)N4)C1 [Example 216, 3-((6aR,7S,10R)-1-fluoro-13-(((2R,6S,7aS)-2-fluoro-6-methoxytetrahydro-1H-pyrrolizin-7a(5H)-yl)methoxy)-5,6,6a,7,8,9,10,11-octahydro-4-oxa-3,11a,12,14,15-pentaaza-7,10-methanocyclohepta[4,5]cycloocta[1,2,3-de]naphthalen-2-yl)-5-methyl-4-(trifluoromethyl)aniline] | 3 to 1000 nM | < 0.3 nM | – | –
5 | COC[C@@H]1[C@H]2C[C@H]2CN1CC1(COc2nc3c4c(nc(-c5cc(N)cc(C)c5C(F)(F)F)c(F)c4n2)OCC[C@@H]2[C@@H]4CC[C@H](CN32)N4)CC1 [Example 182, 3-((6aR,7S,10R)-1-fluoro-13-((1-(((1S,2S,5R)-2-(methoxymethyl)-3-azabicyclo[3.1.0]hexan-3-yl)methyl)cyclopropyl)methoxy)-5,6,6a,7,8,9,10,11-octahydro-4-oxa-3,11a,12,14,15-pentaaza-7,10-methanocyclohepta[4,5]cycloocta[1,2,3-de]naphthalen-2-yl)-5-methyl-4-(trifluoromethyl)aniline] | 3 to 1000 nM | < 0.3 nM | – | –
6 | [2H]C([2H])([2H])c1cc(N)cc(-c2nc3c4c(nc(OC[C@]5(CN(C)C)CC5(F)F)nc4c2F)N2C[C@H]4CC[C@H](N4)[C@H]2CCO3)c1C(F)(F)F [Example 47, 3-((6aR,7S,10R)-13-(((R)-1-((dimethylamino)methyl)-2,2-difluorocyclopropyl)methoxy)-1-fluoro-5,6,6a,7,8,9,10,11-octahydro-4-oxa-3,11a,12,14,15-pentaaza-7,10-methanocyclohepta[4,5]cycloocta [1,2,3-de]naphthalen-2-yl)-5-(methyl-d3)-4-(trifluoromethyl)aniline] | 3 to 1000 nM | < 0.3 nM | – | –
7 | Cc1cc(N)cc(-c2nc3c4c(nc(OCC5(CN6CC[C@H](F)C6)CC5)nc4c2F)N2C[C@H]4CC[C@H](N4)[C@H]2CCO3)c1C(F)(F)F [Example 157, 3-((6aR,7S,10R)-1-fluoro-13-((1-(((S)-3-fluoropyrrolidin-1-yl)methyl)cyclopropyl)methoxy)-5,6,6a,7,8,9,10,11-octahydro-4-oxa-3,11a,12,14,15-pentaaza-7,10-methanocyclohepta[4,5]cycloocta[1,2,3-de]naphthalen-2-yl)-5-methyl-4-(trifluoromethyl)aniline] | 3 to 1000 nM | < 0.3 nM | – | –
8 | COC[C@H]1[C@H]2C[C@H]2CN1CC1(COc2nc3c4c(nc(-c5cc(N)cc(C)c5C(F)(F)F)c(F)c4n2)OCC[C@@H]2[C@@H]4CC[C@H](CN32)N4)CC1 [Example 183, 3-((6aR,7S,10R)-1-fluoro-13-((1-(((1S,2R,5R)-2-(methoxymethyl)-3-azabicyclo[3.1.0]hexan-3-yl)methyl)cyclopropyl)methoxy)-5,6,6a,7,8,9,10,11-octahydro-4-oxa-3,11a,12,14,15-pentaaza-7,10-methanocyclohepta[4,5]cycloocta[1,2,3-de]naphthalen-2-yl)-5-methyl-4-(trifluoromethyl)aniline] | 3 to 1000 nM | < 0.3 nM | – | –
9 | C=C1CN2C[C@H](F)C[C@]2(COc2nc3c4c(nc(-c5cc(N)cc(Cl)c5C(F)(F)F)c(F)c4n2)OCC[C@@H]2[C@@H]4CC[C@H](CN32)N4)C1 [Example 211, 3-chloro-5-((6aR,7aS,10R)-1-fluoro-13-(((2R,7aS)-2-fluoro-6-methylenetetrahydro-1H-pyrrolizin-7a(5H)-yl)methoxy)-5,6,6a,7,8,9,10,11-octahydro-4-oxa-3,11a,12,14,15-pentaaza-7,10-methanocyclohepta[4,5]cycloocta[1,2,3-de]naphthalen-2-yl)-4-(trifluoromethyl)aniline] | 3 to 1000 nM | < 0.3 nM | – | –
10 | Cc1cc(N)cc(-c2nc3c4c(nc(OCC5(CN6CC7CC7C6)CC5(F)F)nc4c2F)N2C[C@H]4CC[C@H](N4)[C@H]2CCO3)c1C(F)(F)F (single isomer, unassigned) [Example 28] | 3 to 1000 nM | < 0.3 nM | – | –
11 | [2H]C([2H])([2H])N1CC[C@H](OC)[C@H]1[C@H](C)Oc1nc2c3c(nc(-c4cc(N)cc(Cl)c4C(F)(F)F)c(F)c3n1)OCC[C@@H]1[C@@H]3CC[C@H](CN21)N3 [Example 218, 3-chloro-5-((6aR,7S,10R)-1-fluoro-13-((S)-1-((2R,3S)-3-methoxy-1-(methyl-d3)pyrrolidin-2-yl)ethoxy)-5,6,6a,7,8,9,10,11-octahydro-4-oxa-3,11a,12,14,15-pentaaza-7,10-methanocyclohepta[4,5]cycloocta[1,2,3-de]naphthalen-2-yl)-4-(trifluoromethyl)aniline] | 0.3 to 3 nM | < 0.3 nM | – | –
12 | Cc1cc(N)cc(-c2nc3c4c(nc(OCC5(CN6CCC(=C(F)F)CC6)CC5)nc4c2F)N2C[C@H]4CC[C@H](N4)[C@H]2CCO3)c1C(F)(F)F [Example 146, 3-((6aR,7S,10R)-13-((1-((4-(difluoromethylene)piperidin-1-yl)methyl)cyclopropyl)methoxy)-1-fluoro-5,6,6a,7,8,9,10,11-octahydro-4-oxa-3,11a,12,14,15-pentaaza-7,10-methano-cyclohepta[4,5]cycloocta [1,2,3-de]naphthalen-2-yl)-5-methyl-4-(trifluoromethyl) aniline] | – | – | 0.3 to 3 nM | < 0.3 nM
13 | Cc1cc(N)cc(-c2nc3c4c(nc(OC[C@]56CCCN5CC(F)(F)C6)nc4c2F)N2C[C@H]4CC[C@H](N4)[C@H]2CCO3)c1C(F)(F)F [Example 34, 3-((6aR,7S,10R)-13-(((R)-2,2-difluorotetrahydro-1H-pyrrolizin-7a(5H)-yl)methoxy)-1-fluoro-5,6,6a,7,8,9,10,11-octahydro-4-oxa-3,11a,12,14,15-pentaaza-7,10-methanocyclohepta[4,5]cycloocta [1,2,3-de]naphthalen-2-yl)-5-methyl-4-(trifluoromethyl)aniline] | 3 to 1000 nM | 0.3 to 3 nM | – | –
14 | Cc1cc(N)cc(-c2nc3c4c(nc(OCC5(C)CN(CC6CC6)CC/C5=C\F)nc4c2F)N2C[C@H]4CC[C@H](N4)[C@H]2CCO3)c1C(F)(F)F (single isomer, unassigned) [Example 239] | 0.3 to 3 nM | – | – | –
15 | Cc1cc(N)cc(-c2nc3c4c(nc(OC[C@]5(CN(C)C)CC5(F)F)nc4c2F)N2C[C@H]4CC[C@H](N4)[C@H]2CC(C)O3)c1C(F)(F)F (single isomer, unassigned) [Example 249] | 3 to 1000 nM | – | – | –
16 | Cc1cc(N)cc(-c2nc3c4c(nc(OCC5(CN6CCC7(C6)CC7(F)F)CC5)nc4c2F)N2C[C@H]4CC[C@H](N4)[C@H]2CCO3)c1C(F)(F)F (single isomer, unassigned) [Example 139] | 3 to 1000 nM | – | – | –
17 | Cc1cc(N)cc(-c2nc3c4c(nc(OCC5(C)CN(C)CC/C5=C\F)nc4c2F)N2C[C@H]4CC[C@H](N4)[C@H]2CCO3)c1C(F)(F)F (single isomer, unassigned) [Example 237] | 0.3 to 3 nM | – | – | –
18 | Cc1cc(N)cc(-c2nc3c4c(nc(OCC5(CN6CC7CC7C6)CC5(F)F)nc4c2F)N2C[C@H]4CC[C@H](N4)[C@H]2CCO3)c1C(F)(F)F (single isomer, unassigned) [Example 29] | 0.3 to 3 nM | – | – | –
19 | Cc1cc(N)cc(-c2nc3c4c(nc(O[C@H]5COC[C@@H]5N(C)C)nc4c2F)N2C[C@H]4CC[C@H](N4)[C@H]2CCO3)c1C(F)(F)F [Example 40, (3S,4R)-4-(((6aR,7S,10R)-2-(5-amino-3-methyl-2-(trifluoromethyl)phenyl)-1-fluoro-5,6,6a,7,8,9,10,11-octahydro-4-oxa-3,11a,12,14,15-pentaaza-7,10-methanocyclohepta[4,5]cycloocta [1,2,3-de]naphthalen-13-yl)oxy)-N,N-dimethyltetrahydrofuran-3-amine] | – | 3 to 1000 nM | – | –
